The source of these data is patent US20250122242A1, “SELECTION SYSTEMS, PEPTIDES DETERMINED THEREWITH, AND METHODS OF USING SAME” (Wisconsin Alumni Research Foundation, priority 2023, published 2025).

For data set [1], the target named is T1, Aβ42-T7n (UniProt P00573+P05067). The conditions noted are these: for phage propagation activity (fitness) on Aβ42-T7n selection: clonal SP encoding the sequence. From the text: Therefore, we turned to a split-T7 RNA polymerase (T7 RNAP) reporter used to evolve proteins with improved soluble expression.^33 In our new selection, host E. coli express an aggregation-prone protein (APP) fused to the N-terminal half of split-T7 RNAP (T7n). When the APP-T7n fusion is translated, it misfolds due to the APP, preventing T7n from associating with the C-terminal half of split-T7 RNAP (T7c; FIG. 2A). If a SP-encoded inhibitor binds to and prevents APP aggregation, the fused T7n will remain folded and join with T7c to produce full-length T7 RNAP. The reconstituted T7 RNAP then transcribes gIII, which we place under control of the T7 promoter (PT7), producing pill and allowing the SP to reproduce (FIGS. 2A and 2B).
T1 sequence (P05067+P00573 fused): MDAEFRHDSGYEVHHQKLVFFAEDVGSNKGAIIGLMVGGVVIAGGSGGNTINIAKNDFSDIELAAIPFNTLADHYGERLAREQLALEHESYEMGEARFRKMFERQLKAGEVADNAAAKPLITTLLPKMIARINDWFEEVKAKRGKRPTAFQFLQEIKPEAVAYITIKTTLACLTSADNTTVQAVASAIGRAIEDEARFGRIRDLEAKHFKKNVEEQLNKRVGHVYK
We used the SICLOPPS method to biosynthesize cyclic peptides that can be selected in E. coli.^15 In SICLOPPS, a precursor fusion consisting of the C-terminal half of the Ssp DnaE split intein, the peptide sequence to be cyclized, and the N-terminal half of the same split intein undergoes intein splicing after translation to produce head-to-tail cyclized peptides (FIG. 7).
Strain S206035 was used for plasmid cloning, amplification, and phage assays. Strain S220835 was used for SP cloning and plaque assays. Plasmids and SPs were cloned by USER assembly or blunt-end ligation. Competent cells were prepared and transformed using the TSS method. Phage propagation and plaque assays were performed as previously described.^54 Unless otherwise noted, phage propagation assays used an input of […] phage to infect a 2 mL culture of host cells.

The test system of a further data set is E. coli. In words: Growth (OD600) of cells expressing SICLOPPS precursors upon IPTG induction. The conditions noted are these: OD600, IPTG induction (FIG. 9B).
Another data set relates to Aβ42-GFP. In words: Aβ42-GFP folding reporter fluorescence assay. Format: cell-based, E. coli. The conditions noted are these: expressed from plasmid, 0.04 mM IPTG, compared with CKVWQLL (FIG. 3H).
Chain of Aβ42-GFP (P05067 672-713): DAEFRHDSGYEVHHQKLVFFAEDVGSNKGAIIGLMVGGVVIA
Data set [2] has as its target T1, Aβ42-T7n. Particulars: cyclo-CX6 library, seven rounds on Aβ42-T7n, deep sequencing. Here is the method:
Single colonies of host cells transformed with the appropriate selection plasmids were used to make overnight cultures in 2×YT with maintenance antibiotics. The overnight culture was diluted (1:100) into 4-5 mL DRM with maintenance antibiotics and incubated at 37° C. with shaking until the OD600 of the culture reached ˜0.5, upon which the expanded phage library was added at a titer of 1×10^6 pfu/mL. The culture was incubated at 37° C. with shaking overnight (13-18 h). The next day, the culture was centrifuged at 8,000 rcf for 2 min to obtain the supernatant containing phage. The collected phage was diluted into fresh host cell cultures (10 to 1,000-fold) for the next round of selection, while the rest was stored at 4° C. for downstream analysis. This process was repeated until a significant increase in phage propagation was observed compared with the parent library. Both positive and negative selection rounds were performed using this procedure.
Sample preparation. Phage stocks collected from the final rounds of library selection were first amplified using LY0145 and LY0146. The PCR product was purified, and adapters added using LY0147 and LY0148. […] The final PCR product was purified, and the concentration measured by Nanodrop. […]
High-throughput sequencing and data analysis. […] Sequencing reads were demultiplexed by UWBC and analyzed using custom-written Python scripts.

Description for Aβ42-GFP: (§1) Single colonies of S2060s transformed with pBL066c and SICLOPPS plasmid were used to make overnight cultures in 2×YT with maintenance antibiotics. The overnight culture was diluted (1:100) into 1 mL DRM on a 96 deep-well plate (VWR, 75870-796) with maintenance antibiotics and IPTG (0, 0.04, 0.2, or 1 mM). The diluted culture was incubated at 37° C. with shaking for 2.5 h, after which aTc (200 ng/mL) was added. 100 μL of the culture was transferred onto a black clear-bottom 96-well plate (VWR, 89131-680) to measure fluorescence signal 2, 3, 5 h after addition of aTc. GFP fluorescence signal (excitation wavelength=485 nm, emission wavelength=535 nm) was then measured using a Tecan M Plex microplate reader.
Description for E. coli: Data reflects 3 biological replicates plotted as individual values.
as §1

For “cyclo-CKVWQLL [CKVWQLL SP, reference compound]”, the “discrimination between active SP and scrambled control (phage propagation)” value on Aβ42-T7n [1] (evolved SP (PACE 1 clone 2) (FIG. 2D)) is given as around 300 fold. In addition, the “increase in phage proliferation compared to SP carrying scrambled control” value on Aβ42-T7n [1] (parent SP, vs CVQWLKL SP (FIG. 8A)) was around 500 fold.
With “CRVYQVL (cyclic; Circular) [cyclo-CRVYQVL]”, the “effect of construct induction on cell growth” value with E. coli was “greatly decreased cell growth”. Also, the “phage propagation activity (fitness) on Aβ42-T7n selection” value in the data set with Aβ42-T7n [1] was “more modest fitness”. For the same substance, the “activity in Aβ42-GFP folding reporter assay” value with Aβ42-GFP is “appeared inactive”.
Regarding “CRVWCAR (cyclic; Circular) [cyclo-CRVWCAR]”, in the data set with Aβ42-T7n [1], the “phage propagation activity (fitness) on Aβ42-T7n selection” value is listed as “robust propagation”. Besides, in the data set with Aβ42-T7n [2], the “share of total sequencing reads in final SP pool” value is around 65%. Also, the “activity in Aβ42-GFP folding reporter assay” value in the data set on Aβ42-GFP is listed as “comparable activity to CKVWQLL”.
